IC50 data for ten compounds are collected here from patent US11873295B2, “Allosteric chromenone inhibitors of phosphoinositide 3-kinase (PI3K) for the treatment of disease” (Petra Pharma Corporation, priority 2021, dated 2024).

Assay [1] concerns the target T1, human full length PIK3KA Wild-type (p110α/p85α complex) (Homo sapiens, UniProt P42336).
T1 construct: Recombinant, catalytically active human full length PIK3KA Wild-type and H1047R mutant were purchased as 1:1 complex; 6xHis (N); purchased EMD Millipore Sigma 14-602M
Description: PI3K-alpha kinase (PIK3CA) biochemical activity, wild-type, ADP-Glo. The settings on record: PI3K-α (PIK3CA) biochemical, Soy PI lipid substrate. The method in brief: (§1)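 Full-length His-p110α/p85α complex, wild-type or H1047R, 1–5 nM, preincubated with compound 1 h at 27 °C in HEPES pH 7.4, 25 mM MgCl2, 0.01% Triton X-100, 1% DMSO. Reaction with 20 μM ATP and 50 μM PIP2diC8 or soy PI at 27 °C to ~10% ATP conversion; ADP-Glo luminescence. IC50 from 10-point four-parameter logistic fit.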
For orientation: ADP-Glo turns the ADP formed in a reaction into a luminescent signal.

Assay [2] has as its target T2, human full length PIK3KA H1047R mutant (p110α/p85α complex) (Homo sapiens, UniProt P42336, H1047R).
T2 construct: Recombinant, catalytically active human full length PIK3KA Wild-type and H1047R mutant were purchased as 1:1 complex; 6xHis (N); purchased EMD Millipore Sigma 14-792M
Kind of assay: PI3K-alpha kinase (PIK3CA) biochemical activity, H1047R mutant, ADP-Glo. The settings on record: PI3K-α (PIK3CA) biochemical, H1047R mutant, Soy PI lipid substrate. The method in brief: as §1

In assay [3] the test system is PI3K-α (PIK3CA) in MDA-MB-453 cells. Kind of assay: PI3K-alpha kinase (PIK3CA) activity in vitro cell based assay, MDA-MB-453 cells, AlphaLisa SureFire. The settings on record: 0% FBS, 3 hours treatment, relative IC50. Summed up:
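MDA-MB-453 cells in serum-free MEM with 1 μg/mL insulin treated 3 h with 10-point 1:3 compound dilutions, 0.3% DMSO. Lysates read by AlphaLisa SureFire; percent inhibition relative to DMSO (max) and 1 μM GDC-0032 (min), duplicate means fitted to 4-parameter logistic for relative IC50.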

T2 sequence (P42336 whole entry H1047R): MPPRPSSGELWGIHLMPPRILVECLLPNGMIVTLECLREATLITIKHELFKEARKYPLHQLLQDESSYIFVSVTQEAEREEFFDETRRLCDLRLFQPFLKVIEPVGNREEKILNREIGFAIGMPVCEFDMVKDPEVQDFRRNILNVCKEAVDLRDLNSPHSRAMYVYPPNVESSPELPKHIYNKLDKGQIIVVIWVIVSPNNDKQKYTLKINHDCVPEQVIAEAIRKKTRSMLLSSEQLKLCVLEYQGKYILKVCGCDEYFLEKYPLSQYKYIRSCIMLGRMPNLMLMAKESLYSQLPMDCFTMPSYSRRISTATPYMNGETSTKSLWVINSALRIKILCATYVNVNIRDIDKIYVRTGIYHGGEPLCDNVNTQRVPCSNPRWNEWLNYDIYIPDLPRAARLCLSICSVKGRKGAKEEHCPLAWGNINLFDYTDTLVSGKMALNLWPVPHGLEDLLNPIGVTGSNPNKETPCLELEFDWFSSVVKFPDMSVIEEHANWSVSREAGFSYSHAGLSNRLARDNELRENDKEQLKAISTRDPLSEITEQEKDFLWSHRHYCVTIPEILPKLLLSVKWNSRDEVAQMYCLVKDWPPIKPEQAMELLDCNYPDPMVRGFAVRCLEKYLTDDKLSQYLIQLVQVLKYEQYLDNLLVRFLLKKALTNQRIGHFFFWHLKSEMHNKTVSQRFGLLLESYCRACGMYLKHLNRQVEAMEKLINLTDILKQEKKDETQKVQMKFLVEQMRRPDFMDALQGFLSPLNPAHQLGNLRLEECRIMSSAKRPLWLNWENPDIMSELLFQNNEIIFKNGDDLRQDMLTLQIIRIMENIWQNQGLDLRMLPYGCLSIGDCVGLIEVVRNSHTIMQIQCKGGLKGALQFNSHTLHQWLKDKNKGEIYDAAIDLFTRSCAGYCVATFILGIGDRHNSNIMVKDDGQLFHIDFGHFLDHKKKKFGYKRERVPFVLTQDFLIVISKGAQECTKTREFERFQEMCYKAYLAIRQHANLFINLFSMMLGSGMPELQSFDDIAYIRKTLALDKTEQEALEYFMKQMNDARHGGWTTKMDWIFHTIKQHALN
T2 sequence (P27986 whole entry partner): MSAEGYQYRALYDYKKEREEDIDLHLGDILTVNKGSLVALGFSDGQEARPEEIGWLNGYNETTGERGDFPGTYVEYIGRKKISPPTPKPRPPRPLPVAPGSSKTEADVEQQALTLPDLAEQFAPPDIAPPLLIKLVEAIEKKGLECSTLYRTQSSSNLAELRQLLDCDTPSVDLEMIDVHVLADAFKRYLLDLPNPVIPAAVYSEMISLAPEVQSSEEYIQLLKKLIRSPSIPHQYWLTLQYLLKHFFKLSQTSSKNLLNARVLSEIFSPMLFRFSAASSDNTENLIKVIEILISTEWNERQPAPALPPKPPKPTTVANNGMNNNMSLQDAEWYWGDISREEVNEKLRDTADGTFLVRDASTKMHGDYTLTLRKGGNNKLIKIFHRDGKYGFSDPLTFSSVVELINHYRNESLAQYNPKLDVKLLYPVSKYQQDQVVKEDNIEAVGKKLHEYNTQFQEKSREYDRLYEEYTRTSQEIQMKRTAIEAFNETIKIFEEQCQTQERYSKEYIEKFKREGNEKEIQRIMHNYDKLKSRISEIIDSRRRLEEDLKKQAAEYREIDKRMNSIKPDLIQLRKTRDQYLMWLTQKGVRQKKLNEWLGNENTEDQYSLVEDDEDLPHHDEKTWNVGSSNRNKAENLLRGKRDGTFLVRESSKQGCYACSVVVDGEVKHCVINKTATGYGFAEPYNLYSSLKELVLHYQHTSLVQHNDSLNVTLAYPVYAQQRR

The IC50 is the concentration needed to halve the response being measured. `Cc1cc([C@@H](C)Nc2ccc(Br)nc2C(=O)O)c2oc(-c3ccccc3)c(C)c(=O)c2c1` [Example 35, 6-Bromo-3-[[(1R)-1-(3,6-dimethyl-4-oxo-2-phenyl-chromen-8-yl)ethyl]amino]-pyridine-2-carboxylic acid]: the concentration for half-maximal inhibition (IC50) was 1 to 5 µM in assay [1]; under 0.5 µM in assay [2]; under 0.05 µM in assay [3] (Homo sapiens, MDA-MB-453, 3 h).

For the compound `Cc1cc([C@@H](C)Nc2ccccc2C(=O)O)c2oc(-c3ccc(C#N)cc3)c(C)c(=O)c2c1` [Example 31, 2-[[(1R)-1-[2-(4-Cyanophenyl)-3,6-dimethyl-4-oxo-chromen-8-yl]ethyl]amino]benzoic acid], the IC50 in assay [1] is 1 to 5 µM; in assay [2] it was under 0.5 µM; in assay [3] (Homo sapiens, MDA-MB-453, 3 h), under 0.05 µM.

As to `Cc1cc([C@@H](C)Nc2ccccc2C(=O)O)c2oc(-c3ccccc3)c(-c3cnoc3)c(=O)c2c1` [Example 85, 2-[[(1R)-1-(3-Isoxazol-4-yl-6-methyl-4-oxo-2-phenyl-chromen-8-yl)ethyl]amino]benzoic acid 2,2,2-trifluoroacetic acid], the half-maximal inhibitory concentration (IC50) in assay [1] was 1 to 5 µM; in assay [2] it was under 0.5 µM; in assay [3] (Homo sapiens, MDA-MB-453, 3 h), under 0.05 µM.

On to `Cc1cc([C@@H](C)Nc2ccccc2C(=O)O)c2oc(-c3ccc(-c4c(C)n[nH]c4C)cc3)c(C)c(=O)c2c1` [Example 165, 2-[[(1R)-1-[2-[4-(3,5-Dimethyl-1H-pyrazol-4-yl)phenyl]-3,6-dimethyl-4-oxo-chromen-8-yl]ethyl]amino]benzoic acid], for which the IC50 in assay [1] was 1 to 5 µM; in assay [2], under 0.5 µM; in assay [3] (Homo sapiens, MDA-MB-453, 3 h), under 0.05 µM.

With `C[C@@H](Nc1ccc(Cl)nc1C(=O)O)c1cc(C(F)(F)F)cc2c(=O)cc(-c3ccc(F)c(F)c3)oc12` [Example 88, 6-Chloro-3-[[(1R)-1-[2-(3,4-difluorophenyl)-4-oxo-6-(trifluoromethyl)-chromen-8-yl]ethyl]amino]pyridine-2-carboxylic acid], the IC50 in assay [1] is 1 to 5 µM; in assay [2] it was under 0.5 µM; in assay [3] (Homo sapiens, MDA-MB-453, 3 h), under 0.05 µM.

As for `Cc1cc(C(C)Nc2cccc(F)c2C(=O)O)c2oc(-c3cccc(F)c3)c(C)c(=O)c2c1` (single isomer, unassigned; isomer 2) [Example 106, 2-Fluoro-6-[1-[2-(3-fluorophenyl)-3,6-dimethyl-4-oxo-chromen-8-yl]ethylamino]benzoic acid, Isomer 2], the IC50 was 1 to 5 µM in assay [1], 1 to 5 µM in assay [2] and over 0.5 µM in assay [3].

Turning to `COc1ncc(N[C@H](C)c2cc(C)cc3c(=O)c(C)c(-c4ccccc4)oc23)c(C(=O)O)n1` [Example 155, 2-Methoxy-5-[[(1R)-1-(3,6-dimethyl-4-oxo-2-phenyl-chromen-8-yl)ethyl]amino]pyrimidine-4-carboxylic acid 2,2,2-trifluoroacetic acid], the 50% inhibitory concentration (IC50) in assay [1] was 1 to 5 µM; in assay [2] it was under 0.5 µM; in assay [3] (Homo sapiens, MDA-MB-453, 3 h), 0.1 to 0.5 µM.

Consider `COc1ccccc1-c1cc(=O)c2cc(C)cc([C@@H](C)Nc3ccccc3C(=O)O)c2o1` [Example 67, 2-[[(1R)-1-[2-(2-Methoxyphenyl)-6-methyl-4-oxo-chromen-8-yl]ethyl]amino]benzoic acid 2,2,2-trifluoroacetic acid], for which the IC50 was over 10 µM in assay [1]; under 0.5 µM in assay [2]; 0.05 to 0.1 µM in assay [3] (Homo sapiens, MDA-MB-453, 3 h).

As for `Cc1cc(C(C)Nc2ccccc2C(=O)O)c2oc(-c3ccc(C(=O)N(C)C)cc3)cc(=O)c2c1` (single isomer, unassigned; isomer 2) [Example 50, 2-[1-[2-[4-(Dimethylcarbamoyl)-phenyl]-6-methyl-4-oxo-chromen-8-yl]ethylamino]benzoic acid, Isomer 2], the half-inhibitory concentration (IC50) was over 10 µM in assay [1]; 5 to 10 µM in assay [2]; over 0.5 µM in assay [3] (Homo sapiens, MDA-MB-453, 3 h).

For the compound `Cc1cc([C@@H](C)Nc2ccc(Cl)nc2C(=O)O)c2oc(-c3ccc(F)cc3F)c(C)c(=O)c2c1` [Example 131, 6-Chloro-3-[[(1R)-1-[2-(2,4-difluorophenyl)-3,6-dimethyl-4-oxo-chromen-8-yl]ethyl]amino]pyridine-2-carboxylic acid 2,2,2-trifluoroacetic acid], the concentration for half-maximal inhibition (IC50) in assay [1] was 1 to 5 µM; in assay [2], under 0.5 µM; in assay [3] (Homo sapiens, MDA-MB-453, 3 h), under 0.05 µM.
